According to publication PMC10242655, “Syringin inhibits endogenous volume regulated anion channel currents of HEK293 cells in hypotonic circumstances” (Pharmacology Research & Perspectives, 2023):

Target: T1, VRAC (LRRC8A) (Homo sapiens, UniProt Q8IWT6)
T1 construct: endogenous VRAC channels of wild-type HEK293 cells; with at least one other LRRC8 subunit (LRRC8B-E; composition not determined)
T1 sequence (Q8IWT6 1-810): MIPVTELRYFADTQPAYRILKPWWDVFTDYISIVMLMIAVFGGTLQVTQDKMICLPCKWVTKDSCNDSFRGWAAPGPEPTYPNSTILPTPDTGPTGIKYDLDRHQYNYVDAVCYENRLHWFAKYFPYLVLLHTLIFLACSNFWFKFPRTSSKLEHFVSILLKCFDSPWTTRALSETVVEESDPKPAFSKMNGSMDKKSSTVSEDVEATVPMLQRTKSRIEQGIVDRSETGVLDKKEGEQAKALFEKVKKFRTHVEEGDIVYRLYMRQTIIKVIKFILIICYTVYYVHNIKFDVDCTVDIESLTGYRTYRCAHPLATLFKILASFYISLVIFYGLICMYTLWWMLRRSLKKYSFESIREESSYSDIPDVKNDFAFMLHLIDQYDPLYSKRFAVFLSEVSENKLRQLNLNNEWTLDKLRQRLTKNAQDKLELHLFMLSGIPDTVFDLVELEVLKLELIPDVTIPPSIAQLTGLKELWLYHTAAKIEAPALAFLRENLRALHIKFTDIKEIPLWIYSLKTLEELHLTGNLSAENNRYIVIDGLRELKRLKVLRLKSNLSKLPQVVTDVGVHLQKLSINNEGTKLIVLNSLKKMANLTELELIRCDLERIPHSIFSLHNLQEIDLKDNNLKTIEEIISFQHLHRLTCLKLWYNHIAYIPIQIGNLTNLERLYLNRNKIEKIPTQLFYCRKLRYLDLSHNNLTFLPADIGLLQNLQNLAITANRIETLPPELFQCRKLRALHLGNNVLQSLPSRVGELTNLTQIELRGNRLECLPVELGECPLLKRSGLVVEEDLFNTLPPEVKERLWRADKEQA
Assay: whole-cell patch clamp of hypotonicity-induced VRAC currents in HEK293; I/I0 […] at […]
Assay type: cell-based

COc1cc(/C=C/CO)cc(OC)c1O[C@@H]1O[C@H](CO)[C@@H](O)[C@H](O)[C@H]1O [Syringin, 4‐[(1E)‐3‐hydroxyprop‐1‐en‐1‐yl]‐2,6‐dimethoxyphenyl β‐D‐glucopyranoside]
whole-cell patch clamp of hypotonicity-induced VRAC currents in HEK293; I/I0 0.6: I/I0 0.61 ± 0.02 at 100 μM
